Experiments:
human TRPV1 (hTRPV1) [1] = biological target: T1, human TRPV1 (hTRPV1) (Homo sapiens, UniProt Q8NER1); test: Ca2+ influx assay, antagonism against capsaicin in hTRPV1-HEK recombinant cells; format: cell-based; conditions: capsaicin 10 nM as activator, Fluo4-NW fluorescence, read-out: hTRPV1 IC50 [cap]
T1 construct: host or cells: HEK (PrecisION hTRPV1-HEK recombinant cell line)

human TRPV1 (hTRPV1) [2] = biological target: T1, human TRPV1 (hTRPV1); test: Evaluation of human pH inhibitory activity in hTRPV1-HEK recombinant cells; format: cell-based; conditions: inhibition of activation at final pH 6.0, test substance 3 μM
Experimental: Evaluation of Human pH Inhibitory Activity
PrecisION™ hTRPV1-HEK recombinant cells (CYL3063) were purchased from Millipore and used. After culturing the above cells under the conditions of 37° C. and 5% CO2, the cells were inoculated in a 96-well plate at the density of 5×10^4 cells/well, followed by culture for 16 hours. Then, the medium was removed and 100 uL of a staining solution was put into each well, followed by culture for 30 minutes under the conditions of 37° C. and 5% CO2. After 30 minutes, all of the existing staining solution was removed and replaced with 100 uL of HBSS. Thereafter, the cells were acclimatized to room temperature for 15 minutes, and the test substances (example compounds and comparative example compounds of the present invention) were added to each well, followed by culture at room temperature for 15 minutes. Then, the final pH was adjusted to 6.0 using MES, and fluorescence was measured (ex485/em535). In the pH assay, the efficacy of the drug was evaluated using BCTC as a TRPV1 antagonist.

T1 sequence (Q8NER1 whole entry): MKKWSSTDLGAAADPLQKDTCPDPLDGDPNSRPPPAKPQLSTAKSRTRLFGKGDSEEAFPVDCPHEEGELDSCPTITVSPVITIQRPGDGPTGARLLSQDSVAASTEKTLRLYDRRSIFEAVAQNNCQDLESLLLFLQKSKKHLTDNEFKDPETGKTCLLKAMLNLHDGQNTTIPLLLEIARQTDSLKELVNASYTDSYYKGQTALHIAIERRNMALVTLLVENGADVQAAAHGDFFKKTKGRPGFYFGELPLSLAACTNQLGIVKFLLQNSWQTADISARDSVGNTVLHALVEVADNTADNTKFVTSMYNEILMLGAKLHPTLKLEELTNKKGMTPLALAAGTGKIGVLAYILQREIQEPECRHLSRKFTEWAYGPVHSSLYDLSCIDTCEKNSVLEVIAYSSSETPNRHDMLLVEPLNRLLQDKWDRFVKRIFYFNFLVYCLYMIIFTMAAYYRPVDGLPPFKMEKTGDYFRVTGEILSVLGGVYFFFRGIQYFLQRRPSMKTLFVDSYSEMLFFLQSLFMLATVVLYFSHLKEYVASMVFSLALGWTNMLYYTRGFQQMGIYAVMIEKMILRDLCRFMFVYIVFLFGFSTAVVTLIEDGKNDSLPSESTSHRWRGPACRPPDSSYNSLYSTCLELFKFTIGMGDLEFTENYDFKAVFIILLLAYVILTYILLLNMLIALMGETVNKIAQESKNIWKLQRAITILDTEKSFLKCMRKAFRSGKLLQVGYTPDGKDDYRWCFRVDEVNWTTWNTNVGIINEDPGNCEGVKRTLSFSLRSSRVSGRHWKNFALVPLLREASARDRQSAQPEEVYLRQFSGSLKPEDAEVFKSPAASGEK

SMILES	IC50 (human TRPV1 (hTRPV1) [1]) [nM]	hTRPV1 pH (%, 3 μM) (human TRPV1 (hTRPV1) [2]) [%]
O=C(/C=C/c1ccc(C(F)(F)Cl)nc1OCC1CC1)Nc1cccc2[nH]c(=O)[nH]c12 [Example 17, (E)-3-(6-(chlorodifluoromethyl)-2-(cyclopropylmethoxy)pyridin-3-yl)-N-(2-oxo-2,3-dihydro-1H-benzo[d]imidazol-4-yl)acrylamide]	56.9	83.20
CC1(c2ccc(/C=C/C(=O)Nc3cccc4[nH]c(=O)[nH]c34)c(OCC3CC3)n2)CC1 [Example 20, (E)-3-(2-(cyclopropylmethoxy)-6-(1-methylcyclopropyl)pyridin-3-yl)-N-(2-oxo-2,3-dihydro-1H-benzo[d]imidazol-4-yl)acrylamide]	53.5	86.79
O=C(/C=C/c1ccc(C(F)F)nc1OCC1CC1)Nc1cccc2[nH]c(=O)[nH]c12 [Example 21, (E)-3-(2-(cyclopropylmethoxy)-6-(difluoromethyl)pyridin-3-yl)-N-(2-oxo-2,3-dihydro-1H-benzo[d]imidazol-4-yl)acrylamide]	26.1	79.89
CC(F)(F)c1ccc(/C=C/C(=O)Nc2cccc3[nH]c(=O)[nH]c23)c(OCC2CC2)n1 [Example 22, (E)-3-(2-(cyclopropylmethoxy)-6-(1,1-difluoroethyl)pyridin-3-yl)-N-(2-oxo-2,3-dihydro-1H-benzo[d]imidazol-4-yl)acrylamide]	31.2	90.86
O=C(/C=C/c1ccc(C(F)(F)F)nc1OCC1CCC1)Nc1cccc2[nH]c(=O)[nH]c12 [Example 25, (E)-3-(2-(cyclobutylmethoxy)-6-(trifluoromethyl)pyridin-3-yl)-N-(2-oxo-2,3-dihydro-1H-benzo[d]imidazol-4-yl)acrylamide]	34.1	89.76
O=C(/C=C/c1ccc(C(F)(F)F)nc1OCC1CCCC1)Nc1cccc2[nH]c(=O)[nH]c12 [Example 26, (E)-3-(2-(cyclopentylmethoxy)-6-(trifluoromethyl)pyridin-3-yl)-N-(2-oxo-2,3-dihydro-1H-benzo[d]imidazol-4-yl)acrylamide]	54.4	95.11
CC(C)CSc1nc(C(F)(F)F)ccc1/C=C/C(=O)Nc1cccc2[nH]c(=O)[nH]c12 [Example 27, (E)-3-(2-(isobutylthio)-6-(trifluoromethyl)pyridin-3-yl)-N-(2-oxo-2,3-dihydro-1H-benzo[d]imidazol-4-yl)acrylamide]	40.9	78.45
O=C(/C=C/c1ccc(C(F)(F)F)nc1-c1cccc(Cl)c1)Nc1cccc2[nH]c(=O)[nH]c12 [Example 31, (E)-3-(2-(3-chlorophenyl)-6-(trifluoromethyl)pyridin-3-yl)-N-(2-oxo-2,3-dihydro-1H-benzo[d]imidazol-4-yl)acrylamide]	26	82.34
CC(C)c1cccc(-c2nc(C(F)(F)F)ccc2/C=C/C(=O)Nc2cccc3[nH]c(=O)[nH]c23)c1 [Example 32, (E)-3-(2-(3-isopropylphenyl)-6-(trifluoromethyl)pyridin-3-yl)-N-(2-oxo-2,3-dihydro-1H-benzo[d]imidazol-4-yl)acrylamide]	23.7	67.88
O=C(/C=C/c1ccc(C(F)(F)F)nc1-c1ccc(F)c(Cl)c1)Nc1cccc2[nH]c(=O)[nH]c12 [Example 33, (E)-3-(2-(3-chloro-4-fluorophenyl)-6-(trifluoromethyl)pyridin-3-yl)-N-(2-oxo-2,3-dihydro-1H-benzo[d]imidazol-4-yl)acrylamide]	27.4	69.89
CC(C)(C)C#Cc1nc(C(F)(F)F)ccc1/C=C/C(=O)Nc1cccc2[nH]c(=O)[nH]c12 [Example 39, (E)-3-(2-(3,3-dimethyl-1-butyn-1-yl)-6-(trifluoromethyl)pyridin-3-yl)-N-(2-oxo-2,3-dihydro-1H-benzo[d]imidazol-4-yl)acrylamide]	35.4	67.89
CC(C)COc1cc(C(F)(F)F)ccc1/C=C/C(=O)Nc1cccc2[nH]c(=O)[nH]c12 [Example 42, (E)-3-(2-isobutoxy-4-(trifluoromethyl)phenyl)-N-(2-oxo-2,3-dihydro-1H-benzo[d]imidazol-4-yl)acrylamide]	35.4	78.89
CC(C)(C)c1ccc(/C=C/C(=O)Nc2cccc3[nH]c(=O)[nH]c23)c(OCC2CC2)c1 [Example 45, (E)-3-(4-(tert-butyl)-2-(cyclopropylmethoxy)phenyl)-N-(2-oxo-2,3-dihydro-1H-benzo[d]imidazol-4-yl)acrylamide]	79.3	48.71
O=C(/C=C/c1ccc(C2CC2)cc1OCC1CC1)Nc1cccc2[nH]c(=O)[nH]c12 [Example 46, (E)-3-(4-cyclopropyl-2-(cyclopropylmethoxy)phenyl)-N-(2-oxo-2,3-dihydro-1H-benzo[d]imidazol-4-yl)acrylamide]	72.9	57.38
CC(C)c1cccc(-n2nc(C(F)(F)F)cc2/C=C/C(=O)Nc2cccc3[nH]c(=O)[nH]c23)c1 [Example 50, (E)-3-(1-(3-isopropylphenyl)-3-(trifluoromethyl)-1H-pyrazol-5-yl)-N-(2-oxo-2,3-dihydro-1H-benzo[d]imidazol-4-yl)acrylamide]	41.3	34.22
CC(C)(C)c1cc(/C=C/C(=O)Nc2cccc3[nH]c(=O)[nH]c23)n(-c2cccc(Cl)c2)n1 [Example 53, (E)-3-(3-(tert-butyl)-1-(3-chlorophenyl)-1H-pyrazol-5-yl)-N-(2-oxo-2,3-dihydro-1H-benzo[d]imidazol-4-yl)acrylamide]	79.8	78.21
O=C(/C=C/c1sc(C(F)(F)F)nc1-c1cccc(Cl)c1)Nc1cccc2[nH]c(=O)[nH]c12 [Example 54, (E)-3-(4-(3-chlorophenyl)-2-(trifluoromethyl)thiazol-5-yl)-N-(2-oxo-2,3-dihydro-1H-benzo[d]imidazol-4-yl)acrylamide]	55.7	63.44
O=C(/C=C/c1sc(C2CC2)nc1-c1cccc(Cl)c1)Nc1cccc2[nH]c(=O)[nH]c12 [Example 56, (E)-3-(4-(3-chlorophenyl)-2-cyclopropylthiazol-5-yl)-N-(2-oxo-2,3-dihydro-1H-benzo[d]imidazol-4-yl)acrylamide]	26	68.23

Compounds with a lower IC50 (human TRPV1 (hTRPV1) [1]), results first:

IC50 (human TRPV1 (hTRPV1) [1]) [nM]	hTRPV1 pH (%, 3 μM) (human TRPV1 (hTRPV1) [2]) [%]	SMILES
14.2	48.62	O=C(/C=C/c1ccc(C(F)(F)F)nc1-c1cccc(F)c1)Nc1cccc2[nH]c(=O)[nH]c12 [Example 30, (E)-3-(2-(3-fluorophenyl)-6-(trifluoromethyl)pyridin-3-yl)-N-(2-oxo-2,3-dihydro-1H-benzo[d]imidazol-4-yl)acrylamide]
11.1	37.85	O=C(/C=C/c1ccc(C(F)(F)F)nc1-c1ccc(F)cc1)Nc1cccc2[nH]c(=O)[nH]c12 [Example 34, (E)-3-(2-(4-fluorophenyl)-6-(trifluoromethyl)pyridin-3-yl)-N-(2-oxo-2,3-dihydro-1H-benzo[d]imidazol-4-yl)acrylamide]
11.8	95.87	O=C(/C=C/c1ccc(C(F)(F)F)nc1-c1cccs1)Nc1cccc2[nH]c(=O)[nH]c12 [Example 35, (E)-N-(2-oxo-2,3-dihydro-1H-benzo[d]imidazol-4-yl)-3-(2-(thiophen-2-yl)-6-(trifluoromethyl)pyridin-3-yl)acrylamide]
11	100.46	O=C(/C=C/c1ccc(C(F)(F)F)nc1-c1ccco1)Nc1cccc2[nH]c(=O)[nH]c12 [Example 36, (E)-3-(2-(furan-2-yl)-6-(trifluoromethyl)pyridin-3-yl)-N-(2-oxo-2,3-dihydro-1H-benzo[d]imidazol-4-yl)acrylamide]
19.7	87.68	O=C(/C=C/c1ccc(C(F)(F)F)cc1OCC1CC1)Nc1cccc2[nH]c(=O)[nH]c12 [Example 43, (E)-3-(2-(cyclopropylmethoxy)-4-(trifluoromethyl)phenyl)-N-(2-oxo-2,3-dihydro-1H-benzo[d]imidazol-4-yl)acrylamide]
15.9	37.26	O=C(/C=C/c1cc(C(F)(F)F)nn1-c1cccc(Cl)c1)Nc1cccc2[nH]c(=O)[nH]c12 [Example 47, (E)-3-(1-(3-chlorophenyl)-3-(trifluoromethyl)-1H-pyrazol-5-yl)-N-(2-oxo-2,3-dihydro-1H-benzo[d]imidazol-4-yl)acrylamide]
9.95	29.43	Cc1cccc(-n2nc(C(F)(F)F)cc2/C=C/C(=O)Nc2cccc3[nH]c(=O)[nH]c23)c1 [Example 48, (E)-N-(2-oxo-2,3-dihydro-1H-benzo[d]imidazol-4-yl)-3-(1-(m-tolyl)-3-(trifluoromethyl)-1H-pyrazol-5-yl)acrylamide]
19.9	21.37	O=C(/C=C/c1cc(C(F)(F)F)nn1-c1ccc(F)c(Cl)c1)Nc1cccc2[nH]c(=O)[nH]c12 [Example 49, (E)-3-(1-(3-chloro-4-fluorophenyl)-3-(trifluoromethyl)-1H-pyrazol-5-yl)-N-(2-oxo-2,3-dihydro-1H-benzo[d]imidazol-4-yl)acrylamide]

Source: patent US12653814B2, “Benzimidazolone-based cinnamamide derivative as TRPV1 antagonist and pharmaceutical composition for treatment or prevention of pain containing same as active ingredient” (JMACKEM CO., LTD, priority 2020, dated 2026)
